The compounds below were run on G401 cells (assay: G401 ELISA test). Settings: Homo sapiens, G-401; G401 cells treated with compounds for 72 hours; ELISA detecting K27 and H3; read-out: G401_ELISA IC50.
Format: cell-based
Method: • Plate Reader: Envision (Perkinelmner); plate shaker: IKA MTS 2/4; plate Washer: BioTek microplate wisher 405 select; Cell counter: Counterstar (Ruiyu-biotech); Cell culture incubator: MCO-15AC (ThermoFisher); Pipette: BioHit Multichannel. Pipette: 0.2-10 μL, 10-300 μL, 50-1200 μL; Centrifuge: Thermo Centrifuge ST 40R; Pure water system: Millipore Milli-Q Reference system; Refrigerator: Haier −80 degree, −20 degree, and 4-degree refrigerators; cell cryopreservation box: Mr. Frosty™ Gradient Cooling Box Cat #5100-0001
• McCoys 5A (Modified) culture medium (ATCC); FBS (Gibco); 0.25% Trypsin/EDTA (Gibco); PBS (Hyclone); Penicillin/Streptomycin(100×) (Gibco); DMSO (Sigma); 384 cell culture plate (Corning); 384 detection plate (Greiner); 96 well plate (compound dilution) (Haimen, Qunchao); T75 Cell Culture Bottle (Corning)
G401 cells were seeded in a 384-well cell culture plate and incubated overnight at 37° C. in a 5% CO2 cell culture incubator, after which the cells were treated with compounds of different concentrations for 72 hours. The 384-well cell culture plate was taken out and upside down in a centrifuge to centrifugeat 300 rpm for 1 minute. After centrifugation, the 384-well cell culture plate was washed twice with PBS, added with lysis solution and lysed for 60 minutes. Then neutralization buffer was added for mixing and incubation was continued for 30 minutes. 20 ul (for detecting K27) and 10 ul (for detecting H3) of cell lysate were extracted from the 384-well cell culture plate and transferred to a 384 ELISA detection plate and incubate overnight at 4° C. The next day, the 384 ELISA plate was taken out and washed 5 times with TBST in a microplate washer. Then, the plate was added with a blocking solution and sealed at room temperature for 1 hour. The blocking solution was discarded and the primary antibody was added and then the plate was incubated at room temperature for 1 hour. After incubation, the plate was washed with TBST 5 times in a microplate washer, then added with secondary antibody and incubated at room temperature for 1 hour. After incubation, the plate was washed with TBST 5 times in a microplate washer, and finally added with color developer for color development. The plate was read with Envision plate reader. The obtained data was converted into inhibition rate using the following calculation method: % Inhibition rate=100−100*(compound absorbance−positive control absorbance)/(negative control absorbance−positive control absorbance), and then the inhibition rate data was subjected to curve fitting using the “logarithmic (inhibitor) and reaction-variable slope (four parameters)” model in GraphPad Prism 5 software.
The inhibition rate of the compound was calculated as follows: […]
The compounds of the present invention were tested according to the above experimental method, and some results were shown in Table 3. The test results were classified by A, B, and C, wherein A represents IC50≤0.1 uM; B represents 0.1 uM<IC50≤1 uM; C represents IC50>1 uM

IC50 [nM] | SMILES
≤ 100 | COc1nccc2ccc(Nc3ccc(CNc4ncc(C(C)C(=O)NC5COC5)cn4)cc3)nc12 (racemic) [PA041, 2-[2-[[4-[(8-methoxy-1,7-naphthyridin-2-yl)amino]phenyl]methylamino]pyrimidin-5-yl]-N-(oxetan-3-yl) propanamide]
≤ 100 | COc1nccc2ccc(NC34CCC(C(C)Nc5ncc(CC(=O)NC6COC6)cn5)(CC3)CC4)nc12 (stereo not drawn) [PA180]
≤ 100 | C[C@H](Nc1ncc(C=CC2CS(=O)(=O)C2)cn1)C12CCC(Nc3ccc4ccnc(Cl)c4n3)(CC1)CC2 [PA164]
> 1000 | COc1nccc2ccc(Nc3ccc(CNc4ncc(CC(=O)NC5COC5)cn4)cc3)cc12 [PA066]
≤ 100 | COc1nccc2ccc(Nc3ccc([C@H](C)Nc4ncc(CN5CC(C#N)C5)cn4)cc3F)nc12 [PA173]
≤ 100 | CC(c1cnc(N[C@@H](C)C23CCC(Nc4ccc5ccnc(Cl)c5n4)(CC2)CC3)nc1)N1CCS(=O)(=O)CC1 (stereo partly drawn) [PA184]
≤ 100 | COc1nccc2ccc(Nc3ccc([C@H](C)Nc4ncc(CC(=O)N(CCC#N)C5COC5)cn4)cc3F)nc12 [PA185]
≤ 100 | COc1nccc2ccc(Nc3ccc([C@H](C)Nc4ncc(C(C)C(=O)NC5COC5)cn4)cc3F)nc12 (stereo partly drawn) [PA190]
≤ 100 | CC(C(=O)N(CCC#N)C1COC1)c1cnc(N[C@@H](C)C23CCC(Nc4ccc5ccnc(Cl)c5n4)(CC2)CC3)nc1 (stereo partly drawn) [PA177]
100 to 1000 | COc1nccc2ccc(Nc3ccc([C@H](C)Nc4ncc(/C=C/C5CCS(=O)(=O)CC5)cn4)cc3F)nc12 [PA210]
≤ 100 | COc1nccc2ccc(Nc3ccc([C@H](C)Nc4ncc(CC(=O)N(CCC#N)CCC#N)cn4)cc3F)nc12 [PA192]
≤ 100 | COc1nccc2ccc(Nc3ccc([C@H](C)Nc4ncc(CNCCS(C)(=O)=O)cn4)cc3F)nc12 [PA260]
> 1000 | O=C(Cc1cnc(NCC23CC(Nc4ccc5ccnc(Cl)c5n4)(C2)C3)nc1)NC1COC1 [PA069]
100 to 1000 | COc1nccc2ccc(Nc3ccc(CNc4ncc(CC(=O)N5CCC56COC6)cn4)cc3F)nc12 [PA215]
≤ 100 | COc1nccc2ccc(Nc3ccc(C(C)Nc4ncc(CC(=O)NC5COC5)cn4)cc3F)nc12 (stereo not drawn) [PA204]
≤ 100 | CC(C(=O)NCCC#N)c1cnc(N[C@@H](C)C23CCC(Nc4ccc5ccnc(Cl)c5n4)(CC2)CC3)nc1 (stereo partly drawn) [PA191]
≤ 100 | COc1nccc2ccc(Nc3ccc([C@H](C)Nc4ncc([C@H](C)C(=O)NC5COC5)cn4)cc3F)nc12 [PA186]
≤ 100 | COc1nccc2ccc(Nc3ccc(CNc4ncc(CNCc5cnoc5)cn4)cc3F)nc12 [PA198]
≤ 100 | COc1nccc2ccc(Nc3ccc(CNc4ncc(CN5CCS(=O)(=O)CC5)cn4)cc3F)nc12 [PA259]
> 1000 | COc1nccn2cc(Nc3ccc(CNc4ncc(CC(=O)NC5COC5)cn4)cc3)nc12 [PA253]
100 to 1000 | COc1nccc2ccc(Nc3ccc([C@H](C)Nc4ncc(N5CCC(C#N)CC5)cn4)cc3F)nc12 [PA214]
≤ 100 | COc1nccc2ccc(Nc3ccc(CNc4ncc(CNCc5cnco5)cn4)cc3F)nc12 [PA203]
100 to 1000 | COc1nccc2ccc(Nc3ccc(CNc4ncc(CNCc5cn[nH]c5)cn4)cc3F)nc12 [PA234]
100 to 1000 | COc1nccc2ccc(Nc3ccc([C@H](C)Nc4c(F)cc(CNC5CS(=O)(=O)C5)cc4F)cc3F)nc12 [PA241]
100 to 1000 | COc1nccc2ccc(Nc3ccc(CNc4ncc(CC(=O)N5CCC(O)C5)cn4)cc3F)nc12 (stereo not drawn) [PA232]
≤ 100 | COc1nccc2ccc(Nc3ccc(CNc4ncc([C@H](C)C(=O)NC5COC5)cn4)cc3)nc12 (single isomer, unassigned) [PA042, 2-[2-[[4-[(8-methoxy-1,7-naphthyridin-2-yl)amino]phenyl]methylamino]pyrimidin-5-yl]-N-(oxetan-3-yl) propanamide]

IC50 [nM] | SMILES
100 to 1000 | COc1nccc2ccc(Nc3ccc(CNc4ncc([C@@H](C)C(=O)NC5COC5)cn4)cc3)nc12 (single isomer, unassigned) [PA043, 2-[2-[[4-[(8-methoxy-1,7-naphthyridin-2-yl)amino]phenyl]methylamino]pyrimidin-5-yl]-N-(oxetan-3-yl) propanamide]
100 to 1000 | COc1nccc2ccc(Nc3ccc([C@H](CO)Nc4ncc(CC(=O)NC5COC5)cn4)cc3F)nc12 [PA218]
100 to 1000 | COc1nccc2ccc(Nc3ccc([C@H](C)Nc4ncc(CC(=O)NC5CCCC5OC)cn4)cc3F)nc12 (stereo partly drawn) [PA222]
≤ 100 | C[C@H](Nc1ncc(C(O)C(=O)NC2COC2)cn1)C12CCC(Nc3ccc4ccnc(Cl)c4n3)(CC1)CC2 (stereo partly drawn) [PA174]
100 to 1000 | CC(C(=O)NC1COC1)c1cnc(NCc2ccc(Nc3ccc4ccnc(Cl)c4n3)cc2)nc1 (stereo not drawn) [PA044]
> 1000 | O=C(Nc1ccc(NCC23CCC(Nc4ccc5ccnc(Cl)c5n4)(CC2)CC3)nc1)NC1COC1 [PA250]
≤ 100 | C[C@H](Nc1ncc(CC2CCS(=O)(=O)CC2)cn1)C12CCC(Nc3ccc4ccnc(Cl)c4n3)(CC1)CC2 [PA187]
≤ 100 | COc1nccc2ccc(Nc3ccc([C@H](C)Nc4ncc(C(C)NC5CS(=O)(=O)C5)cn4)cc3F)nc12 (stereo partly drawn) [PA163]
> 1000 | COc1nccc2ccc(Nc3ccc(CNc4cnc(C(C)(C)C(=O)NC5COC5)cn4)cc3)nc12 [PA038]
≤ 100 | COc1cccc2ccc(Nc3ccc(CNc4ncc(CC(=O)NC5COC5)cn4)cc3F)nc12 [PA197]
100 to 1000 | COCCNC(=O)Cc1cnc(NCc2ccc(Nc3ccc4ccnc(OC)c4n3)cc2)nc1 [PA152]
100 to 1000 | O=C(Cc1cnc(NCc2ccc(Nc3ccc4ccnc(Cl)c4n3)cc2)nc1)NC1COC1 [PA010]
≤ 100 | COc1nccc2ccc(Nc3ccc([C@H](C)Nc4ncc(N5CC(C#N)C5)cn4)cc3F)nc12 [PA206]
≤ 100 | COc1nccc2ccc(Nc3ccc([C@H](C)Nc4ncc(CNC5CC(F)(F)C5)cn4)cc3F)nc12 [PA201]
100 to 1000 | COc1nccc2ccc(Nc3ccc(CNc4ncc(CC(=O)N5CCC(O)CC5)cn4)cc3F)nc12 [PA230]
≤ 100 | COc1nccc2ccc(Nc3ccc([C@H](C)Nc4ncc(N5CC(CC#N)C5)cn4)cc3F)nc12 [PA199]
100 to 1000 | COc1nccc2ccc(Nc3ccc([C@H](C)Nc4ncc(CCN(C)C5CC(F)(F)C5)cn4)cc3F)nc12 [PA235]
> 1000 | COc1nccc2ccc(Nc3ccc(CNc4ncc(CC(=O)N5CC6(COC6)C5)cn4)cc3F)nc12 [PA251]
≤ 100 | COc1nccc2ccc(Nc3ccc([C@H](C)Nc4ncc(CNC5CCS(=O)(=O)C5)cn4)cc3F)nc12 (stereo partly drawn) [PA182]
100 to 1000 | COc1nccc2ccc(Nc3ccc([C@H](C)Nc4ncc(CNCC5CC(F)(F)C5)cn4)cc3F)nc12 [PA240]
> 1000 | N#Cc1nccc2ccc(Nc3ccc(CNc4ncc(CC(=O)NC5COC5)cn4)cc3)nc12 [PA074]
100 to 1000 | COc1nccc2ccc(Nc3ccc(C(C)Nc4ncc(CC(=O)NC5COC5)cn4)cc3)nc12 (racemic) [PA039, 2-(2-((1-(4-((8-methoxy-1,7-naphthyridin-2-yl)amino)phenyl)ethyl)amino)pyrimidin-5-yl) acetic acid N-(oxetan-3-yl) acetamide]
> 1000 | COc1nccc2cnc(Nc3ccc(CNc4ncc(CC(=O)NC5COC5)cn4)cc3)nc12 [PA254]
100 to 1000 | COc1nccc2ccc(Nc3ccc(CNc4ncc(CN5CCC(O)CC5)cn4)cc3F)nc12 [PA227]
≤ 100 | COc1nccc2ccc(Nc3ccc([C@H](C)Nc4ncc(CC(=O)NCCC#N)cn4)cc3F)nc12 [PA200]
